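Five compound concentrations were applied to cells in 96-well plates for 48 hours; endpoints were derived by simple linear interpolation of the resulting dose-response curve. GI50 is the concentration that inhibits growth by half. The concentration for full growth arrest is given as TGI.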
Key:
Test in all cases: NCI-60 cell line screen, 48 h
HCC-2998 colon = test system: HCC-2998 colon
A549 NSCLC = test system: A549 NSCLC
M14 melanoma = test system: M14 melanoma
LOX IMVI melanoma = test system: LOX IMVI melanoma
IGROV1 ovarian = test system: IGROV1 ovarian
HCT-116 colon = test system: HCT-116 colon
UACC-62 melanoma = test system: UACC-62 melanoma
MOLT-4 leukemia = test system: MOLT-4 leukemia
TK-10 renal = test system: TK-10 renal
MCF7 breast = test system: MCF7 breast
K-562 leukemia = test system: K-562 leukemia
SNB-19 CNS = test system: SNB-19 CNS
HL-60(TB) leukemia = test system: HL-60(TB) leukemia
UO-31 renal = test system: UO-31 renal
SK-MEL-2 melanoma = test system: SK-MEL-2 melanoma
HOP-92 NSCLC = test system: HOP-92 NSCLC
NCI-H23 lung = test system: NCI-H23 lung
ACHN renal = test system: ACHN renal
A498 renal = test system: A498 renal
DU-145 prostate = test system: DU-145 prostate
U251 CNS = test system: U251 CNS
UACC-257 melanoma = test system: UACC-257 melanoma
COLO 205 colon = test system: COLO 205 colon
SR leukemia = test system: SR leukemia
NCI-H522 lung = test system: NCI-H522 lung
HS 578T breast = test system: HS 578T breast
HOP-62 NSCLC = test system: HOP-62 NSCLC
SF-295 CNS = test system: SF-295 CNS
SK-OV-3 ovarian = test system: SK-OV-3 ovarian
CAKI-1 renal = test system: CAKI-1 renal

**Q.** Which TGI (HCC-2998 colon) does the source give for OCCCNc1oc(-c2ccccc2)nc1[P+](c1ccccc1)(c1ccccc1)c1ccccc1 here?
**A.** The TGI was 12.8 µM.

**Q.** What about the GI50 (A549 NSCLC) of the same compound?
**A.** Its GI50 is 5.68 µM.

**Q.** What about the TGI (A549 NSCLC) of the same compound?
**A.** Its TGI is 20.3 µM.

**Q.** What about the GI50 (M14 melanoma) of the same compound?
**A.** Its GI50 is 3.13 µM.

**Q.** What about the TGI (M14 melanoma) of the same compound?
**A.** The TGI was 17.7 µM.

**Q.** What about the GI50 (LOX IMVI melanoma) of the same compound?
**A.** Its GI50 is 3.12 µM.

**Q.** What about the TGI (LOX IMVI melanoma) of the same compound?
**A.** Its TGI is 12.2 µM.

**Q.** What about the GI50 (IGROV1 ovarian) of the same compound?
**A.** Its GI50 is 2.14 µM.

**Q.** What about the TGI (IGROV1 ovarian) of the same compound?
**A.** Its TGI is 7.01 µM.

**Q.** And the GI50 (HCT-116 colon)?
**A.** The GI50 was 2.52 µM.

**Q.** What about the TGI (HCT-116 colon) of the same compound?
**A.** The TGI was 15.9 µM.

**Q.** And the GI50 (UACC-62 melanoma)?
**A.** Its GI50 is 1.38 µM.

**Q.** And the TGI (UACC-62 melanoma)?
**A.** Its TGI is 3.85 µM.

**Q.** What about the GI50 (MOLT-4 leukemia) of the same compound?
**A.** The GI50 was 3.01 µM.

**Q.** And the TGI (MOLT-4 leukemia)?
**A.** The TGI was 12.1 µM.

**Q.** And the GI50 (TK-10 renal)?
**A.** Its GI50 is 3.62 µM.

**Q.** What about the TGI (TK-10 renal) of the same compound?
**A.** The TGI was 16.3 µM.

**Q.** What about the GI50 (MCF7 breast) of the same compound?
**A.** The GI50 was 1.95 µM.

**Q.** And the TGI (MCF7 breast)?
**A.** Its TGI is 8.73 µM.

**Q.** And the GI50 (K-562 leukemia)?
**A.** The GI50 was 1.46 µM.

**Q.** And the TGI (K-562 leukemia)?
**A.** The TGI was 11.7 µM.

**Q.** And the GI50 (SNB-19 CNS)?
**A.** Its GI50 is 2.15 µM.

**Q.** And the TGI (SNB-19 CNS)?
**A.** Its TGI is 7.25 µM.

**Q.** And the GI50 (HL-60(TB) leukemia)?
**A.** Its GI50 is 0.586 µM.

**Q.** And the TGI (HL-60(TB) leukemia)?
**A.** Its TGI is 2.9 µM.

**Q.** What about the GI50 (UO-31 renal) of the same compound?
**A.** The GI50 was 15.7 µM.

**Q.** And the TGI (UO-31 renal)?
**A.** The TGI was 33.2 µM.

**Q.** And the GI50 (SK-MEL-2 melanoma)?
**A.** Its GI50 is 2.49 µM.

**Q.** What about the TGI (SK-MEL-2 melanoma) of the same compound?
**A.** The TGI was 6.46 µM.

**Q.** And the GI50 (HOP-92 NSCLC)?
**A.** Its GI50 is 1.24 µM.

**Q.** What about the TGI (HOP-92 NSCLC) of the same compound?
**A.** Its TGI is 5.68 µM.

**Q.** What about the GI50 (NCI-H23 lung) of the same compound?
**A.** Its GI50 is 3.02 µM.

**Q.** And the TGI (NCI-H23 lung)?
**A.** The TGI was 12.5 µM.

**Q.** What about the GI50 (ACHN renal) of the same compound?
**A.** The GI50 was 10.2 µM.

**Q.** And the TGI (ACHN renal)?
**A.** Its TGI is 24.8 µM.

**Q.** What about the GI50 (A498 renal) of the same compound?
**A.** The GI50 was 10.4 µM.

**Q.** What about the TGI (A498 renal) of the same compound?
**A.** The TGI was 23 µM.

**Q.** And the GI50 (DU-145 prostate)?
**A.** Its GI50 is 3.86 µM.

**Q.** What about the TGI (DU-145 prostate) of the same compound?
**A.** Its TGI is 16.4 µM.

**Q.** And the GI50 (U251 CNS)?
**A.** The GI50 was 2.67 µM.

**Q.** What about the TGI (U251 CNS) of the same compound?
**A.** Its TGI is 11.7 µM.

**Q.** What about the GI50 (UACC-257 melanoma) of the same compound?
**A.** Its GI50 is 1.98 µM.

**Q.** What about the TGI (UACC-257 melanoma) of the same compound?
**A.** Its TGI is 6.1 µM.

**Q.** What about the GI50 (COLO 205 colon) of the same compound?
**A.** The GI50 was 1.26 µM.

**Q.** And the TGI (COLO 205 colon)?
**A.** Its TGI is 4.41 µM.

**Q.** What about the GI50 (SR leukemia) of the same compound?
**A.** Its GI50 is 3.43 µM.

**Q.** What about the TGI (SR leukemia) of the same compound?
**A.** Its TGI is 16.1 µM.

**Q.** And the GI50 (NCI-H522 lung)?
**A.** The GI50 was 1.76 µM.

**Q.** And the TGI (NCI-H522 lung)?
**A.** Its TGI is 7.82 µM.

**Q.** What about the GI50 (HS 578T breast) of the same compound?
**A.** Its GI50 is 2.25 µM.

**Q.** What about the TGI (HS 578T breast) of the same compound?
**A.** Its TGI is 8.21 µM.

**Q.** And the GI50 (HOP-62 NSCLC)?
**A.** Its GI50 is 3.25 µM.

**Q.** What about the TGI (HOP-62 NSCLC) of the same compound?
**A.** The TGI was 14.5 µM.

**Q.** And the GI50 (SF-295 CNS)?
**A.** Its GI50 is 3.02 µM.

**Q.** What about the TGI (SF-295 CNS) of the same compound?
**A.** Its TGI is 10.5 µM.

**Q.** What about the GI50 (SK-OV-3 ovarian) of the same compound?
**A.** Its GI50 is 2.34 µM.

**Q.** And the TGI (SK-OV-3 ovarian)?
**A.** The TGI was 8.1 µM.

**Q.** And the GI50 (CAKI-1 renal)?
**A.** Its GI50 is 4.28 µM.

**Q.** What about the TGI (CAKI-1 renal) of the same compound?
**A.** The TGI was 21.7 µM.

From PubChem BioAssay (NCI)
